Reference: PubChem BioAssay (NCI)
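Values below derive from 48-hour exposures of cells grown in 96-well plates, with endpoints linearly interpolated between the two concentrations bracketing the appropriate inhibition level. TGI: concentration producing complete growth inhibition.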

Experiments:
Assay in all cases: NCI tumour cell line growth inhibition, 48 h
786-0 renal = system: 786-0 renal
A498 renal = system: A498 renal
A549 NSCLC = system: A549 NSCLC
ACHN renal = system: ACHN renal
BT-549 breast = system: BT-549 breast
HCT-15 colon = system: HCT-15 colon
HOP-92 NSCLC = system: HOP-92 NSCLC
IGROV1 ovarian = system: IGROV1 ovarian
MALME-3M melanoma = system: MALME-3M melanoma
MDA-N = system: MDA-N
NCI-H226 lung = system: NCI-H226 lung
NCI/ADR-RES ovarian = system: NCI/ADR-RES ovarian
OVCAR-3 ovarian = system: OVCAR-3 ovarian
OVCAR-5 ovarian = system: OVCAR-5 ovarian
SK-OV-3 ovarian = system: SK-OV-3 ovarian
SNB-19 CNS = system: SNB-19 CNS
SR leukemia = system: SR leukemia
T-47D breast = system: T-47D breast
TK-10 renal = system: TK-10 renal
UACC-257 melanoma = system: UACC-257 melanoma

SMILES | TGI (786-0 renal) [µM] | TGI (A498 renal) [µM] | TGI (A549 NSCLC) [µM] | TGI (ACHN renal) [µM] | TGI (BT-549 breast) [µM] | TGI (HCT-15 colon) [µM] | TGI (HOP-92 NSCLC) [µM] | TGI (IGROV1 ovarian) [µM] | TGI (MALME-3M melanoma) [µM] | TGI (MDA-N) [µM] | TGI (NCI-H226 lung) [µM] | TGI (NCI/ADR-RES ovarian) [µM] | TGI (OVCAR-3 ovarian) [µM] | TGI (OVCAR-5 ovarian) [µM] | TGI (SK-OV-3 ovarian) [µM] | TGI (SNB-19 CNS) [µM] | TGI (SR leukemia) [µM] | TGI (T-47D breast) [µM] | TGI (TK-10 renal) [µM] | TGI (UACC-257 melanoma) [µM]
CC1(C)CCCOc2cccc(c2)OCCCC(C)(C)C1=O | > 100 | > 100 | > 100 | > 100 | 89.3 | > 100 | 99.1 | > 100 | 70.3 | > 100 | 82.9 | > 100 | 69.1 | > 100 | > 100 | > 100 | > 100 | > 100 | > 100 | –
CNC(=O)CNC(=O)C(Cc1ccc(NC(=O)CCCCC(C)=O)cc1)NC(=O)C(CCC(=O)OCc1ccccc1)NC(=O)OC(C)(C)C (stereo not drawn) | > 100 | > 100 | > 100 | > 100 | > 100 | > 100 | > 100 | > 100 | > 100 | > 100 | > 100 | > 100 | > 100 | > 100 | > 100 | > 100 | > 100 | > 100 | > 100 | –
COc1cccc(NC(=O)CC(=O)N2N=C(C)C(N=Nc3ccc(S(=O)(=O)CCOS(=O)(=O)O)cc3)C2=O)c1 (stereo not drawn) | 9.07 | 22.7 | 41.1 | 15.7 | 14.5 | 12.1 | 13.2 | 17.3 | 23.2 | 14 | 27.1 | > 100 | 17 | 44.9 | – | 33.9 | > 100 | 24.2 | 18.9 | 23
COc1cc2c(c(OC)c1OC)C(=O)[C@H](Br)[C@H]2NC(=O)NCCCl | > 100 | > 100 | > 100 | > 100 | > 100 | > 100 | > 100 | > 100 | > 100 | > 100 | > 100 | > 100 | > 100 | > 100 | > 100 | > 100 | > 100 | > 100 | > 100 | > 100
CCOP(=O)(OCC)[C@]12C[C@@H](C)C=C[C@H]1COC2=O | > 100 | > 100 | > 100 | > 100 | > 100 | – | – | – | > 100 | > 100 | – | – | > 100 | > 100 | > 100 | > 100 | > 100 | > 100 | > 100 | > 100
Cn1c2ccccc2n2c3ccccc3c(=O)c(C#N)c12 | > 59.9 | > 75.8 | > 100 | 13.6 | > 100 | > 100 | > 76.7 | > 87 | 49.9 | > 100 | 34.1 | > 60.1 | > 100 | > 100 | > 100 | > 100 | 48.3 | > 95.6 | > 100 | > 100
COc1ccc([C@]23CCN(S(=O)(=O)c4ccc(C)cc4)[C@H]2[C@H](CO)C2(CC3)OCC(C)(C)CO2)cc1OC | > 100 | > 100 | > 100 | > 100 | > 100 | > 100 | > 100 | > 100 | > 100 | > 100 | > 100 | > 100 | > 100 | > 100 | > 100 | > 100 | > 100 | > 100 | > 100 | > 100
CN(C)CCc1ccnc2nc(-c3ccc4ccccc4c3)cn12 | 63.2 | – | > 100 | > 100 | 69 | > 100 | – | 81.8 | > 100 | > 100 | > 100 | 85.3 | 72 | > 100 | > 100 | > 100 | > 100 | > 100 | 40.7 | > 100
CN(C)CC1(Cc2ccccc2)CCC(Cc2ccccc2)C1=O (stereo not drawn) | 4.37 | 29.8 | 33.5 | 29.7 | 25.5 | 13.3 | 40 | 24.1 | 27.2 | 25 | 37.9 | 40 | 16.2 | 32.8 | 36.4 | 29.7 | 33.3 | 51.5 | 26.7 | 29.1
CC(C)c1cccc(C(=O)NCCN(C)C)c1[N+](=O)[O-] | > 100 | > 100 | > 100 | > 100 | 97.4 | > 100 | – | > 100 | > 100 | > 100 | > 100 | > 100 | > 100 | > 100 | > 100 | > 100 | > 100 | > 100 | > 100 | > 100
Clc1ccc(C=NC23CC4CC(CC(C4)C2)C3)cc1Cl | > 10 | > 10 | > 10 | > 10 | > 10 | > 10 | > 10 | > 10 | > 10 | > 10 | > 10 | > 10 | > 10 | > 10 | > 10 | > 10 | > 10 | > 10 | > 10 | > 10
Cc1cc(=O)oc2c3c(ccc12)OC(c1ccc(Br)cc1)CC3=O (stereo not drawn) | 25.5 | – | 34.8 | 29.4 | 11.4 | 34.2 | – | 32.5 | 71.3 | > 100 | 38.2 | > 100 | 24.3 | 31.4 | 30.3 | 20.5 | > 100 | 1.18 | 27.1 | 27.9
O=C(O)c1cc(O)c2c(c1)C([C@@H]1c3cccc(O)c3C(=O)c3c(O)cc(C(=O)O)cc31)c1cccc(O)c1C2=O (stereo partly drawn) | > 100 | 69.3 | > 100 | > 100 | > 100 | – | 57.7 | 49.4 | 44.7 | 41.5 | > 100 | > 100 | > 100 | > 100 | > 100 | > 100 | > 100 | > 100 | > 100 | > 100
COc1cc2ccc1OCc1cccc(n1)COc1ccc(cc1OC)C=Nc1ccc(cc1)-c1ccc(cc1)N=C2 | > 100 | > 100 | > 100 | > 100 | > 100 | > 100 | > 100 | > 100 | > 100 | > 100 | > 100 | > 100 | > 100 | – | > 100 | > 100 | > 100 | > 100 | > 100 | > 100
C[C@H](CCC(=O)O)[C@H]1CC[C@H]2[C@@H]3[C@H](O)C[C@@H]4C[C@H](O)CC[C@]4(C)[C@H]3CC[C@]12C | > 100 | > 100 | > 100 | > 100 | > 100 | > 100 | 91.1 | > 100 | > 100 | > 100 | 78.3 | > 100 | – | > 100 | – | > 100 | 47.4 | > 100 | > 100 | > 100
O=[N+]([O-])c1ccc2c(c1)nc(Cc1ccc(Cl)cc1)n2C[C@@H]1CCCN2CCCCC12 (stereo partly drawn) | 24.5 | 21.7 | 42.1 | 29 | 27.1 | 37.8 | 25.4 | 26.7 | 26.2 | 25.9 | 38.3 | 30.2 | 30.8 | 35.3 | 43.5 | 50.5 | > 100 | 36.6 | 39.9 | 31.4
CCNc1nc2c(ncn2C2CC(O)C(COP(=O)(O)O)O2)c(=O)[nH]1 (stereo not drawn) | > 100 | > 100 | > 100 | > 100 | > 100 | > 100 | > 100 | > 100 | > 100 | > 100 | > 100 | > 100 | > 100 | > 100 | > 100 | > 100 | > 100 | > 100 | > 100 | > 100
Cc1cc(=O)oc2c(C)c3oc(CBr)c(Br)c3cc12 | 29.7 | – | 37.2 | > 100 | > 100 | > 100 | – | 36.1 | – | > 100 | > 100 | 95.7 | > 100 | 80 | > 100 | > 100 | 98.5 | 72.6 | > 100 | > 100
CCSC1=N/C(=C/c2ccccc2O)C(=O)N1 | > 100 | – | > 100 | > 100 | > 100 | > 100 | > 100 | > 100 | > 100 | > 100 | > 100 | > 100 | > 100 | > 100 | > 100 | > 100 | > 100 | > 100 | – | > 100
CCCC(=O)OCC1OC(n2cc(F)c(=O)[nH]c2=O)C(F)C1OC(=O)CCC (stereo not drawn) | > 100 | > 100 | > 100 | > 100 | > 100 | > 100 | > 100 | > 100 | > 100 | > 100 | > 100 | > 100 | > 100 | > 100 | > 100 | – | > 100 | > 100 | > 100 | > 100
O=C(NCCNCCNC(=O)C(F)(F)F)C(F)(F)F | > 100 | – | > 100 | > 100 | > 100 | > 100 | – | > 100 | > 100 | > 100 | > 100 | > 100 | > 100 | > 100 | > 100 | > 100 | > 100 | > 100 | > 100 | > 100
CCCCCCCCCCCCCCCC(=O)OC(COC(C)=O)CO[P+](=O)O (stereo not drawn) | 38.9 | > 100 | 36.5 | 92.8 | > 100 | 43.8 | 34 | 59.6 | > 100 | > 100 | – | 80.8 | > 100 | 38.6 | – | > 100 | 62 | > 100 | > 100 | > 100
COc1ccc2c(c1)CCC1=C/C(=N\NC(N)=O)CCC12C (stereo not drawn) | > 10 | – | > 10 | > 10 | > 10 | > 10 | > 10 | > 10 | > 10 | > 10 | – | > 10 | > 10 | – | > 10 | > 10 | > 10 | > 10 | > 10 | > 10
Nc1cc(N2CCOCC2)nc(=O)n1-c1ccc(Cl)cc1 | > 100 | > 100 | > 100 | > 100 | > 100 | > 100 | > 100 | > 100 | – | > 100 | > 100 | > 100 | > 100 | > 100 | > 100 | > 100 | > 100 | > 100 | – | > 100
